Laboratory results taken from PMC10922772 (ACS infectious diseases, 2024).
Values joined by “and” are separate entries in the source; they are usually repeats but may differ in a detail not shown here. Equal entries are not always repeated.

Target: SARS-CoV-2 Mpro (Severe acute respiratory syndrome coronavirus 2, UniProt P0DTD1)
Test: biochemical
Conditions: for inhibition at 20 µM: read-out: % inhibition at 20 μM; for IC50: IC50, enzyme 100 nM, substrate 20 μM, 10 min preincubation, pH 6.5; for fold less active than the other (more active) diastereomer: between the two diastereomers of the same compound; for fold less active than compound 13: IC50 compared with compound 13

SMILES | inhibition at 20 µM [%] | IC50 | other results
CC(C)(C)c1ccc(N(C(=O)C2CO2)C(C(=O)NCc2ccccc2)c2cccnc2)cc1 [(R, R)- and (S, S)-42, N-(2-(Benzylamino)-2-oxo-1-(pyridin-3-yl)ethyl)-N-(4-(tert-butyl)phenyl)oxirane-2-carboxamide] | 45 |  | 
CC1OC1C(=O)N(c1ccc(C(C)(C)C)cc1)C(C(=O)NC(C)(C)C)c1cccnc1 [(R, S, R)- and (S, R, S)-39, N-(4-(tert-Butyl)phenyl)-N-(2-(tert-butylamino)-2-oxo-1-(pyridin-3-yl)ethyl)-3-methyloxirane-2-carboxamide] |  | 4.33 ± 0.32 µM | 
CC(C)(C)c1ccc(N(C(=O)C2CO2)C(C(=O)NC2CCCCC2)c2cccnc2)cc1 [(R, R)- and (S, S)-30, N-(4-(tert-Butyl)phenyl)-N-(2-(cyclohexylamino)-2-oxo-1-(pyridin-3-yl)ethyl)oxirane-2-carboxamide] |  | 9.9 ± 1.6 µM | fold less active than the other (more active) diastereomer: 13 ×
C=CC(=O)N(c1ccc(C(C)(C)C)cc1)C(C(=O)NC1CCCCC1)c1cccnc1 (centres unmarked) [Compound 29, N-(4-(tert-Butyl)phenyl)-N-(2-(cyclohexylamino)-2-oxo-1-(pyridin-3-yl)ethyl)acrylamide] | 30 |  | 
COc1ccc(N(C(=O)CCl)C(C(=O)NC(C)(C)C)c2cccnc2)cc1 (centres unmarked) [Compound 22, N-(tert-Butyl)-2-(2-chloro-N-(4-methoxyphenyl)acetamido)-2-(pyridin-3-yl)acetamide] |  | 1.6 µM and 1.61 µM | 
CC(C)(C)NC(=O)C(c1cccnc1)N(C(=O)CCl)c1cccc(NC(=O)C(Cl)Cl)c1 (centres unmarked) [Compound 19, N-(tert-Butyl)-2-(2-chloro-N-(3-(2,2-dichloroacetamido)phenyl)acetamido)-2-(pyridin-3-yl)acetamide] |  | 2.2 ± 0.51 µM | 
CC(C)(C)NC(=O)C(c1cccnc1)N(C(=O)C(=O)Cc1ccccc1)c1ccc(C(C)(C)C)cc1 (centres unmarked) [Compound 31, N-(4-(tert-Butyl)phenyl)-N-(2-(tert-butylamino)-2-oxo-1-(pyridin-3-yl)ethyl)-2-oxo-3-phenylpropanamide] | 0 |  | inhibitory activity against Mpro (in words): inactive
O=C(NCc1ccccc1)C(c1cccnc1)N(C(=O)c1ccco1)c1ccc(-c2ccccc2)cc1 (centres unmarked) [Compound 1, N-([1,1’-Biphenyl]-4-yl)-N-(2-(benzylamino)-2-oxo-1-(pyridin-3-yl)ethyl)furan-2-carboxamide] |  | 0.74 ± 0.07 µM | 
CC(C)(C)c1ccc(N(C(=O)CCl)C(C(=O)NC2CCCCC2)c2cccnc2)cc1 (centres unmarked) [Compound 26, N-(4-(tert-Butyl)phenyl)-2-chloro-N-(2-(cyclohexylamino)-2-oxo-1-(pyridin-3-yl)ethyl)acetamide] |  | 0.49 ± 0.22 µM | 
O=C(Nc1cccc(N(C(=O)c2ccco2)C(C(=O)NCc2ccccc2)c2cccnc2)c1)C(Cl)Cl (centres unmarked) [Compound 9, N-(2-(Benzylamino)-2-oxo-1-(pyridin-3-yl)ethyl)-N-(3-(2,2-dichloroacetamido)phenyl)furan-2-carboxamide] | 20 |  | 
O=C(NCc1ccccc1)C(c1cccnc1)N(C(=O)c1ccco1)c1ccc(C2CO2)cc1 (centres unmarked) [Compound 2, N-(2-(Benzylamino)-2-oxo-1-(pyridin-3-yl)ethyl)-N-(4-(oxiran-2-yl)phenyl)furan-2-carboxamide] | 18 |  | 
CC(C)(C)NC(=O)C(c1cccnc1)N(C(=O)CO)c1ccc(C(C)(C)C)cc1 (centres unmarked) [Compound 32, N-(tert-Butyl)-2-(N-(4-(tert-butyl)phenyl)-2-hydroxyacetamido)-2-(pyridin-3-yl)acetamide] | 21 |  | 
C=Cc1ccc(N(C(=O)c2ccco2)C(C(=O)NCc2ccccc2)c2cccnc2)cc1 (centres unmarked) [Compound 3, N-(2-(Benzylamino)-2-oxo-1-(pyridin-3-yl)ethyl)-N-(4-vinylphenyl)furan-2-carboxamide] | 26 |  | 
CC1OC1C(=O)N(c1ccc(C(C)(C)C)cc1)C(C(=O)NC1CCCCC1)c1cccnc1 [(R, R, S)- and (S, S, R)-35, N-(4-(tert-Butyl)phenyl)-N-(2-(cyclohexylamino)-2-oxo-1-(pyridin-3-yl)ethyl)-3-methyloxirane-2-carboxamide] | 42 |  | fold less active than the other (more active) diastereomer: ~ 10 ×
CC(C)(C)NC(=O)C(c1cccnc1)N(C(=O)CCl)c1ccc(N)cc1 (centres unmarked) [Compound 20, N-(4-Aminophenyl)-N-(2-(tert-butylamino)-2-oxo-1-(pyridin-3-yl)ethyl)-2-chloroacetamide] | 12 |  | 
CC(C)(C)NC(=O)C(c1cccnc1)N(C(=O)c1ccco1)c1ccc(CC2CO2)cc1 (centres unmarked) [Compound 4, N-(2-(tert-Butylamino)-2-oxo-1-(pyridin-3-yl)ethyl)-N-(4-(oxiran-2-ylmethyl)phenyl)furan-2-carboxamide] | 10 |  | 
CC(C)(C)c1ccc(N(C(=O)C2CO2)C(C(=O)NCc2ccccc2)c2cccnc2)cc1 [(R, S)- and (S, R)-42, N-(2-(Benzylamino)-2-oxo-1-(pyridin-3-yl)ethyl)-N-(4-(tert-butyl)phenyl)oxirane-2-carboxamide] |  | 1.6 ± 0.32 µM | 
Nc1cccc(N(C(=O)c2ccco2)C(C(=O)NCc2ccccc2)c2cccnc2)c1 (centres unmarked) [Compound 12, N-(3-Aminophenyl)-N-(2-(benzylamino)-2-oxo-1-(pyridin-3-yl)ethyl)furan-2-carboxamide] | 18 |  | 

SMILES | inhibition at 20 µM [%] | IC50 | other results
CC(C)(C)NC(=O)C(c1cccnc1)N(C(=O)CCl)c1ccc(NC(=O)CCl)cc1 (centres unmarked) [Compound 15, N-(tert-Butyl)-2-(2-chloro-N-(4-(2-chloroacetamido)phenyl)acetamido)-2-(pyridin-3-yl)acetamide] |  | 3.2 ± 0.79 µM | fold less active than compound 13: ~ 5 ×
CC(C)(C)NC(=O)C(c1cccnc1)N(C(=O)CCl)c1ccc(-c2ccccc2)cc1 (centres unmarked) [Compound 14, N-([1,1’-Biphenyl]-4-yl)-N-(2-(tert-butylamino)-2-oxo-1-(pyridin-3-yl)ethyl)-2-chloroacetamide] |  | 0.95 ± 0.04 µM | 
CC(C)(C)NC(=O)C(c1cccnc1)N(C(=O)C1OC1(C)C)c1ccc(C(C)(C)C)cc1 (centres unmarked) [Compound 40, N-(4-(tert-Butyl)phenyl)-N-(2-(tert-butylamino)-2-oxo-1-(pyridin-3-yl)ethyl)-3,3-dimethyloxirane-2-carboxamide] | 31 |  | 
CC(C)(C)NC(=O)C(c1cccnc1)N(C(=O)C1(C)CO1)c1ccc(C(C)(C)C)cc1 (centres unmarked) [Compound 41, N-(4-(tert-Butyl)phenyl)-N-(2-(tert-butylamino)-2-oxo-1-(pyridin-3-yl)ethyl)-2-methyloxirane-2-carboxamide] | 22 |  | 
CC(C)(C)NC(=O)C(c1cccnc1)N(C(=O)CCl)c1cccc(NC(=O)CCl)c1 (centres unmarked) [Compound 18, N-(tert-Butyl)-2-(2-chloro-N-(3-(2-chloroacetamido)phenyl)acetamido)-2-(pyridin-3-yl)acetamide] |  | 3.6 ± 0.6 µM | 
C=CC(=O)Nc1cccc(N(C(=O)c2ccco2)C(C(=O)NCc2ccccc2)c2cccnc2)c1 (centres unmarked) [Compound 10, N-(3-Acrylamidophenyl)-N-(2-(benzylamino)-2-oxo-1-(pyridin-3-yl)ethyl)furan-2-carboxamide] | 5 |  | 
O=C(Nc1ccc(N(C(=O)c2ccco2)C(C(=O)NCc2ccccc2)c2cccnc2)cc1)C(Cl)Cl (centres unmarked) [Compound 6, N-(2-(Benzylamino)-2-oxo-1-(pyridin-3-yl)ethyl)-N-(4-(2,2-dichloroacetamido)phenyl)furan-2-carboxamide] | 41 |  | 
CC(C)(C)NC(=O)C(c1cccnc1)N(C(=O)C1CO1)c1ccc(C(C)(C)C)cc1 [(R, S)- and (S, R)-38, N-(4-(tert-Butyl)phenyl)-N-(2-(tert-butylamino)-2-oxo-1-(pyridin-3-yl)ethyl)oxirane-2-carboxamide] |  | 1.2 µM and 1.24 µM | 
C=CC(=O)Nc1ccc(N(C(=O)c2ccco2)C(C(=O)NCc2ccccc2)c2cccnc2)cc1 (centres unmarked) [Compound 7, N-(4-Acrylamidophenyl)-N-(2-(benzylamino)-2-oxo-1-(pyridin-3-yl)ethyl)furan-2-carboxamide] | 22 |  | 
CC(C)(C)NC(=O)C(c1cccnc1)N(C(=O)CCl)c1ccc(CC2CO2)cc1 (centres unmarked) [Compound 17, N-(tert-Butyl)-2-(2-chloro-N-(4-(oxiran-2-ylmethyl)phenyl)acetamido)-2-(pyridin-3-yl)acetamide] |  | 3.6 ± 0.3 µM | 
O=C(CCl)Nc1ccc(N(C(=O)c2ccco2)C(C(=O)NCc2ccccc2)c2cccnc2)cc1 (centres unmarked) [Compound 5, N-(2-(Benzylamino)-2-oxo-1-(pyridin-3-yl)ethyl)-N-(4-(2-chloroacetamido)phenyl)furan-2-carboxamide] | 47 | ~20 µM | 
CC(C)(C)NC(=O)C(c1cccnc1)N(C(=O)CCl)c1ccc(NC(=O)C(Cl)Cl)cc1 (centres unmarked) [Compound 16, N-(tert-Butyl)-2-(2-chloro-N-(4-(2,2-dichloroacetamido)phenyl)acetamido)-2-(pyridin-3-yl)acetamide] |  | 3.6 ± 0.19 µM | fold less active than compound 13: ~ 5 ×
CC1OC1C(=O)N(c1ccc(C(C)(C)C)cc1)C(C(=O)NC(C)(C)C)c1cccnc1 [(R, R, S)- and (S, S, R)-39, N-(4-(tert-Butyl)phenyl)-N-(2-(tert-butylamino)-2-oxo-1-(pyridin-3-yl)ethyl)-3-methyloxirane-2-carboxamide] |  | 5.32 ± 0.64 µM | 
CC(=O)OCC(=O)N(c1ccc(C(C)(C)C)cc1)C(C(=O)NC(C)(C)C)c1cccnc1 (centres unmarked) [Compound 33, 2-((4-(tert-Butyl)phenyl)(2-(tert-butylamino)-2-oxo-1-(pyridin-3-yl)ethyl)amino)-2-oxoethyl acetate] | 0 |  | 
CC(C)(C)c1ccc(N(C(=O)CC#N)C(C(=O)NC2CCCCC2)c2cccnc2)cc1 (centres unmarked) [Compound 34, N-(4-(tert-Butyl)phenyl)-2-cyano-N-(2-(cyclohexylamino)-2-oxo-1-(pyridin-3-yl)ethyl)acetamide] | 28 |  | 
CCCCNC(=O)C(c1cccnc1)N(C(=O)CCl)c1ccc(C(C)(C)C)cc1 (centres unmarked) [Compound 24, N-Butyl-2-(N-(4-(tert-butyl)phenyl)-2-chloroacetamido)-2-(pyridin-3-yl)acetamide] |  | 2.4 ± 0.3 µM | 
Nc1ccc(N(C(=O)c2ccco2)C(C(=O)NCc2ccccc2)c2cccnc2)cc1 (centres unmarked) [Compound 11, N-(4-Aminophenyl)-N-(2-(benzylamino)-2-oxo-1-(pyridin-3-yl)ethyl)furan-2-carboxamide] | 0 |  | 
